{"source": "paper PMC9090415", "about": "“Discovery of small molecule inhibitors of Plasmodium falciparum apicoplast DNA polymerase” (Journal of Enzyme Inhibition and Medicinal Chemistry, 2022)", "target": "P. falciparum apicoplast DNA polymerase (Pf-apPOL) (Plasmodium falciparum, UniProt Q8ILY1)", "sequence (Q8ILY1 entry or part of it)": "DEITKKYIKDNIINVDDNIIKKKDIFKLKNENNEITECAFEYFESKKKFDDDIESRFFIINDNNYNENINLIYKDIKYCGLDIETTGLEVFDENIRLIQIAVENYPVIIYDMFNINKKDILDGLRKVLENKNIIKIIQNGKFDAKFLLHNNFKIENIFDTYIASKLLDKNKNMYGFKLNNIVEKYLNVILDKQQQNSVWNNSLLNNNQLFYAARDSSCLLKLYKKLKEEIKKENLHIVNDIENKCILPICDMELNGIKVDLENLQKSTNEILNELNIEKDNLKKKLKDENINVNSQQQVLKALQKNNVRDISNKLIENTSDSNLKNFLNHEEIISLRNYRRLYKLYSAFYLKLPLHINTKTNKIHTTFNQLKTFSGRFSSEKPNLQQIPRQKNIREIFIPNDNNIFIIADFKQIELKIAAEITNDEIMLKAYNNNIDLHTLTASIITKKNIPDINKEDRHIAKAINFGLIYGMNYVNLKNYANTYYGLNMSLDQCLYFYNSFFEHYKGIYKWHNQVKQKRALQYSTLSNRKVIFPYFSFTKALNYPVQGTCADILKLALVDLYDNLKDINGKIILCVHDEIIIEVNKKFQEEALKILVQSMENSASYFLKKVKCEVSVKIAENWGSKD", "assay": "Fluorescence-based high-throughput DNA polymerase assay (molecular beacon), primary screen and dose-response", "format": "biochemical", "details": "for DNA Pol: unit not given, 90 min, 10 µM", "procedure": "The HT assay employs a molecular beacon, a stem-loop DNA template with a Cy3 dye and the Black Hole Quencher on the 3′ and 5′ ends of the DNA, respectively. Pf-apPOL concentration is based on a calculated absorptivity of ε280 = 56750 M^−1 cm^−1. Reactions were carried out at 25 °C, using Corning 3575 […] (well-volume, 20 µL). Assays testing for compound inhibition composed of reaction buffer (pH 7.9 in 50 mM potassium acetate, 20 mM Tris-acetate and 10 mM magnesium acetate), Pf-apPOL (20 nM), DNA substrate (20 nM), dNTPs (6 µM), and compound (10 µM in DMSO). The DNA and nucleotide substrates (dNTPs) were at concentrations of 20 nM and 6 µM, respectively, in the assay. Pf-apPOL was incubated in the reaction buffer with dNTPs and the compound of interest (10 µM, in the assay) at 25 °C for 10 min. The DNA substrate was then added and the reaction was allowed to proceed for 90 min at 25 °C.\nEach assay plate contained 16 negative controls (no Pf-apPOL, DMSO present) and 16 positive controls (Pf-apPOL present, no DMSO). The fluorescence of each well was determined using a BioTek Synergy Neo fluorescence plate reader using excitation and emission wavelengths of 555 and 570 nm, respectively.\nIn the above, Min is the average of fluorescence emission of the negative controls (substrate only), Max the average fluorescence emission from the positive controls (enzyme + substrate), and Test the emission from the assays in the presence of compounds (enzyme + compound + substrates). […] […] The IC50 of each compound was determined using Equation (2): (2) IC50= Vmax/(1+ (I/IC50)^n)\nIn the above, n measures cooperativity, with n > 1 indicating synergistic binding of more than a single molecule of the compound.\nTo identify apPOL inhibitors we utilised our previously developed high-throughput DNA polymerase assay. The HT assay is based on a molecular beacon DNA template that forms a stem-loop with a Cy3 dye and the Black Hole Quencher on the 3′ and 5′ ends of the DNA, respectively. DNA polymerase activity extends an annealed primer through the stem region, displacing the fluorophore from the quencher, thereby increasing its fluorescence (Figure 1(A)). The assay accurately recapitulates the kinetic behaviour of apPOL, as measured through more conventional low-throughput gel-based assays. The Z′ factor for the assay described here was 0.9 across all plates (data not shown).\nFigure 1. High-throughput screening. (A) The fluorescent-based DNA polymerase assay used to screen the compound libraries. The DNA template strand is a hairpin loop with a primer annealed to the loop. The 3’ end of the primer is 11 bases away from the 6 bp duplex. Strand displacement activity of the DNA polymerase separates the Cy3 dye from the Black hole quencher leading to an increase in fluorescent signal. (B) The high-throughput assay workflow. The DNA polymerase is incubated with […] compound for 10 min prior to addition of the hairpin substrate. The reaction is quenched at 3 different time points and the fluorescent signal is measured and % inhibition is determined using the provided equation."}
{"molecule": "Cc1ccc(CCNC(=O)c2cnn3c(O)c(Cc4ccccc4F)c(C)nc23)cc1", "note": "[KU0097142]", "values": [{"measurement": "% inhibition Apo pol 10'", "setting": "DRC-1, concentration 2.5", "value": -13.7377, "unit": "%"}, {"measurement": "% inhibition Apo pol 10'", "setting": "DRC-1, concentration 5", "value": -17.1874, "unit": "%"}, {"measurement": "% inhibition Apo pol 10'", "setting": "DRC-1, concentration 10", "value": -18.6102, "unit": "%"}, {"measurement": "% inhibition Apo pol 10'", "setting": "DRC-1, concentration 20", "value": 32.4745, "unit": "%"}, {"measurement": "% inhibition Apo pol 10'", "setting": "DRC-1, concentration 40", "value": 80.8586, "unit": "%"}, {"measurement": "% inhibition Apo pol 10'", "setting": "DRC-1, concentration 80", "value": 88.0629, "unit": "%"}, {"measurement": "% inhibition Apol 90'", "setting": "DRC-1, 90', concentration 2.5", "value": -9.394, "unit": "%"}, {"measurement": "% inhibition Apol 90'", "setting": "DRC-1, 90', concentration 5", "value": -5.811, "unit": "%"}, {"measurement": "% inhibition Apol 90'", "setting": "DRC-1, 90', concentration 10", "value": -11.7224, "unit": "%"}, {"measurement": "% inhibition Apol 90'", "setting": "DRC-1, 90', concentration 20", "value": 36.3215, "unit": "%"}, {"measurement": "% inhibition Apol 90'", "setting": "DRC-1, 90', concentration 40", "value": 78.277, "unit": "%"}, {"measurement": "% inhibition Apol 90'", "setting": "DRC-1, 90', concentration 80", "value": 85.9002, "unit": "%"}, {"measurement": "% inhibition apPOL 180'", "setting": "DRC-1, 180', concentration 2.5", "value": -10.2215, "unit": "%"}, {"measurement": "% inhibition apPOL 180'", "setting": "DRC-1, 180', concentration 5", "value": -8.372, "unit": "%"}, {"measurement": "% inhibition apPOL 180'", "setting": "DRC-1, 180', concentration 10", "value": -12.5375, "unit": "%"}, {"measurement": "% inhibition apPOL 180'", "setting": "DRC-1, 180', concentration 20", "value": 23.0268, "unit": "%"}, {"measurement": "% inhibition apPOL 180'", "setting": "DRC-1, 180', concentration 40", "value": 70.309, "unit": "%"}, {"measurement": "% inhibition apPOL 180'", "setting": "DRC-1, 180', concentration 80", "value": 81.7781, "unit": "%"}, {"measurement": "% inhibition Apol 40'", "setting": "DRC-2, 40', concentration 5 (unit not given)", "value": 17, "unit": "%"}, {"measurement": "% inhibition Apol 40'", "setting": "DRC-2, 40', concentration 40 (unit not given)", "value": 67, "unit": "%"}, {"measurement": "% inhibition ApPOL 90'", "setting": "DRC-2, 90', concentration 5 (unit not given)", "value": 17, "unit": "%"}, {"measurement": "% inhibition ApPOL 90'", "setting": "DRC-2, 90', concentration 40 (unit not given)", "value": 67, "unit": "%"}, {"measurement": "% inhibition apPOL 180'", "setting": "DRC-2, 180', concentration 40 (unit not given)", "value": 62, "unit": "%"}, {"measurement": "% inhibition Apo pol 5'", "setting": "DRC-2, concentration 2.5", "value": -3.79, "unit": "%"}, {"measurement": "% inhibition Apo pol 5'", "setting": "DRC-2, concentration 5", "value": 11, "unit": "%"}, {"measurement": "% inhibition Apo pol 5'", "setting": "DRC-2, concentration 10", "value": 15, "unit": "%"}, {"measurement": "% inhibition Apo pol 5'", "setting": "DRC-2, concentration 20", "value": 45, "unit": "%"}, {"measurement": "% inhibition Apo pol 5'", "setting": "DRC-2, concentration 40", "value": 57, "unit": "%"}, {"measurement": "% inhibition Apo pol 5'", "setting": "DRC-2, concentration 80", "value": 62, "unit": "%"}, {"measurement": "% inhibition Apo pol 5'", "setting": "DRC-2, concentration 80 (unit not given)", "value": 62, "unit": "%"}, {"measurement": "% inhibition Apol 40'", "setting": "DRC-2, 40', concentration 2.5", "value": -0.896, "unit": "%"}, {"measurement": "% inhibition Apol 40'", "setting": "DRC-2, 40', concentration 5", "value": 17, "unit": "%"}, {"measurement": "% inhibition Apol 40'", "setting": "DRC-2, 40', concentration 10", "value": 21, "unit": "%"}, {"measurement": "% inhibition Apol 40'", "setting": "DRC-2, 40', concentration 20", "value": 54, "unit": "%"}, {"measurement": "% inhibition Apol 40'", "setting": "DRC-2, 40', concentration 40", "value": 67, "unit": "%"}, {"measurement": "% inhibition Apol 40'", "setting": "DRC-2, 40', concentration 80", "value": 71, "unit": "%"}, {"measurement": "% inhibition ApPOL 90'", "setting": "DRC-2, 90', concentration 2.5", "value": -1.26, "unit": "%"}, {"measurement": "% inhibition ApPOL 90'", "setting": "DRC-2, 90', concentration 5", "value": 17, "unit": "%"}, {"measurement": "% inhibition ApPOL 90'", "setting": "DRC-2, 90', concentration 10", "value": 19, "unit": "%"}, {"measurement": "% inhibition ApPOL 90'", "setting": "DRC-2, 90', concentration 20", "value": 52, "unit": "%"}, {"measurement": "% inhibition ApPOL 90'", "setting": "DRC-2, 90', concentration 40", "value": 67, "unit": "%"}, {"measurement": "% inhibition ApPOL 90'", "setting": "DRC-2, 90', concentration 80", "value": 72, "unit": "%"}, {"measurement": "% inhibition apPOL 180'", "setting": "DRC-2, 180', concentration 2.5", "value": -2.35, "unit": "%"}, {"measurement": "% inhibition apPOL 180'", "setting": "DRC-2, 180', concentration 5", "value": 12, "unit": "%"}, {"measurement": "% inhibition apPOL 180'", "setting": "DRC-2, 180', concentration 10", "value": 13, "unit": "%"}, {"measurement": "% inhibition apPOL 180'", "setting": "DRC-2, 180', concentration 20", "value": 43, "unit": "%"}, {"measurement": "% inhibition apPOL 180'", "setting": "DRC-2, 180', concentration 40", "value": 62, "unit": "%"}, {"measurement": "% inhibition apPOL 180'", "setting": "DRC-2, 180', concentration 80", "value": 69, "unit": "%"}, {"measurement": "DNA Pol", "setting": "primary screen value of the 186 hits", "value": 48}, {"measurement": "DNA Pol", "setting": "primary screen value, head \"DNA Pol\"", "value": 48}]}
